Laboratory results reported in ChEMBL document CHEMBL4765227, “Hit to lead optimization of a series of N-[4-(1,3-benzothiazol-2-yl)phenyl]acetamides as monoacylglycerol lipase inhibitors with potential anticancer activity” (Eur J Med Chem, 2016).

Key:
Type in all cases: functional
Conditions in all cases: read-out: GI
[1] = test system: CCRF-CEM; experiment: Growth inhibition of human CCRF-CEM cells at 10 uM incubated for 48 hrs by sulforhodamine B assay relative to control
[2] = test system: HL-60(TB); experiment: Growth inhibition of human HL-60(TB) cells at 10 uM incubated for 48 hrs by sulforhodamine B assay relative to control
[3] = test system: K562; experiment: Growth inhibition of human K562 cells at 10 uM incubated for 48 hrs by sulforhodamine B assay relative to control
[4] = test system: MOLT-4; experiment: Growth inhibition of human MOLT-4 cells at 10 uM incubated for 48 hrs by sulforhodamine B assay relative to control
[5] = test system: RPMI-8226; experiment: Growth inhibition of human RPMI-8226 cells at 10 uM incubated for 48 hrs by sulforhodamine B assay relative to control
[6] = test system: SR; experiment: Growth inhibition of human SR cells at 10 uM incubated for 48 hrs by sulforhodamine B assay relative to control
[7] = test system: A549; experiment: Growth inhibition of human A549/ATCC cells at 10 uM incubated for 48 hrs by sulforhodamine B assay relative to control
[8] = test system: HOP-62; experiment: Growth inhibition of human HOP-62 cells at 10 uM incubated for 48 hrs by sulforhodamine B assay relative to control
[9] = test system: HOP-92; experiment: Growth inhibition of human HOP-92 cells at 10 uM incubated for 48 hrs by sulforhodamine B assay relative to control
[10] = test system: NCI-H23; experiment: Growth inhibition of human NCI-H23 cells at 10 uM incubated for 48 hrs by sulforhodamine B assay relative to control
[11] = test system: NCI-H522; experiment: Growth inhibition of human NCI-H522 cells at 10 uM incubated for 48 hrs by sulforhodamine B assay relative to control
[12] = test system: HCC 2998; experiment: Growth inhibition of human HCC 2998 cells at 10 uM incubated for 48 hrs by sulforhodamine B assay relative to control
[13] = test system: HCT-116; experiment: Growth inhibition of human HCT-116 cells at 10 uM incubated for 48 hrs by sulforhodamine B assay relative to control
[14] = test system: HCT-15; experiment: Growth inhibition of human HCT-15 cells at 10 uM incubated for 48 hrs by sulforhodamine B assay relative to control
[15] = test system: HT-29; experiment: Growth inhibition of human HT-29 cells at 10 uM incubated for 48 hrs by sulforhodamine B assay relative to control
[16] = test system: KM12; experiment: Growth inhibition of human KM12 cells at 10 uM incubated for 48 hrs by sulforhodamine B assay relative to control
[17] = test system: SF-268; experiment: Growth inhibition of human SF-268 cells at 10 uM incubated for 48 hrs by sulforhodamine B assay relative to control
[18] = test system: SF-295; experiment: Growth inhibition of human SF-295 cells at 10 uM incubated for 48 hrs by sulforhodamine B assay relative to control
[19] = test system: SF-539; experiment: Growth inhibition of human SF-539 cells at 10 uM incubated for 48 hrs by sulforhodamine B assay relative to control
[20] = test system: SNB-19; experiment: Growth inhibition of human SNB-19 cells at 10 uM incubated for 48 hrs by sulforhodamine B assay relative to control
[21] = test system: SNB-75; experiment: Growth inhibition of human SNB-75 cells at 10 uM incubated for 48 hrs by sulforhodamine B assay relative to control
[22] = test system: U-251; experiment: Growth inhibition of human U-251 cells at 10 uM incubated for 48 hrs by sulforhodamine B assay relative to control
[23] = test system: LOX IMVI; experiment: Growth inhibition of human LOX IMVI cells at 10 uM incubated for 48 hrs by sulforhodamine B assay relative to control
[24] = test system: M14; experiment: Growth inhibition of human M14 cells at 10 uM incubated for 48 hrs by sulforhodamine B assay relative to control
[25] = test system: MDA-MB-435; experiment: Growth inhibition of human MDA-MB-435 cells at 10 uM incubated for 48 hrs by sulforhodamine B assay relative to control
[26] = test system: SK-MEL-28; experiment: Growth inhibition of human SK-MEL-28 cells at 10 uM incubated for 48 hrs by sulforhodamine B assay relative to control
[27] = test system: SK-MEL-5; experiment: Growth inhibition of human SK-MEL-5 cells at 10 uM incubated for 48 hrs by sulforhodamine B assay relative to control
[28] = test system: UACC-257; experiment: Growth inhibition of human UACC-257 cells at 10 uM incubated for 48 hrs by sulforhodamine B assay relative to control
[29] = test system: UACC-62; experiment: Growth inhibition of human UACC-62 cells at 10 uM incubated for 48 hrs by sulforhodamine B assay relative to control
[30] = test system: OVCAR-4; experiment: Growth inhibition of human OVCAR-4 cells at 10 uM incubated for 48 hrs by sulforhodamine B assay relative to control
[31] = test system: OVCAR-8; experiment: Growth inhibition of human OVCAR-8 cells at 10 uM incubated for 48 hrs by sulforhodamine B assay relative to control
[32] = test system: SK-OV-3; experiment: Growth inhibition of human SK-OV-3 cells at 10 uM incubated for 48 hrs by sulforhodamine B assay relative to control
[33] = test system: ACHN; experiment: Growth inhibition of human ACHN cells at 10 uM incubated for 48 hrs by sulforhodamine B assay relative to control
[34] = test system: RXF 393; experiment: Growth inhibition of human RXF 393 cells at 10 uM incubated for 48 hrs by sulforhodamine B assay relative to control
[35] = test system: SN12C; experiment: Growth inhibition of human SN12C cells at 10 uM incubated for 48 hrs by sulforhodamine B assay relative to control
[36] = test system: TK-10; experiment: Growth inhibition of human TK-10 cells at 10 uM incubated for 48 hrs by sulforhodamine B assay relative to control
[37] = test system: UO-31; experiment: Growth inhibition of human UO-31 cells at 10 uM incubated for 48 hrs by sulforhodamine B assay relative to control
[38] = test system: PC-3; experiment: Growth inhibition of human PC-3 cells at 10 uM incubated for 48 hrs by sulforhodamine B assay relative to control
[39] = test system: DU-145; experiment: Growth inhibition of human DU-145 cells at 10 uM incubated for 48 hrs by sulforhodamine B assay relative to control
[40] = test system: MCF7; experiment: Growth inhibition of human MCF7 cells at 10 uM incubated for 48 hrs by sulforhodamine B assay relative to control
[41] = test system: MDA-MB-231; experiment: Growth inhibition of human MDA-MB-231 cells at 10 uM incubated for 48 hrs by sulforhodamine B assay relative to control
[42] = test system: BT-549; experiment: Growth inhibition of human BT-549 cells at 10 uM incubated for 48 hrs by sulforhodamine B assay relative to control
[43] = test system: T47D; experiment: Growth inhibition of human T47D cells at 10 uM incubated for 48 hrs by sulforhodamine B assay relative to control
[44] = test system: MDA-MB-468; experiment: Growth inhibition of human MDA-MB-468 cells at 10 uM incubated for 48 hrs by sulforhodamine B assay relative to control

O=C(CNc1ccccc1)Nc1ccc(-c2nc3ccccc3s2)cc1
inhibition of growth at 10 µM [1]: 74.3%
inhibition of growth at 10 µM [2]: 11%
inhibition of growth at 10 µM [3]: 22.5%
inhibition of growth at 10 µM [4]: 84.5%
inhibition of growth at 10 µM [5]: 12.5%
inhibition of growth at 10 µM [6]: 74.5%
inhibition of growth at 10 µM [7]: 9.72%
inhibition of growth at 10 µM [8]: -12%
inhibition of growth at 10 µM [9]: 3.37%
inhibition of growth at 10 µM [10]: 11.9%
inhibition of growth at 10 µM [11]: 26%
inhibition of growth at 10 µM [12]: -16%
inhibition of growth at 10 µM [13]: 29.7%
inhibition of growth at 10 µM [14]: 29.6%
inhibition of growth at 10 µM [15]: 2%
inhibition of growth at 10 µM [16]: 5.48%
inhibition of growth at 10 µM [17]: 12.1%
inhibition of growth at 10 µM [18]: 7.06%
inhibition of growth at 10 µM [19]: 12%
inhibition of growth at 10 µM [20]: 8.22%
inhibition of growth at 10 µM [21]: 17.4%
inhibition of growth at 10 µM [22]: 14.8%
inhibition of growth at 10 µM [23]: 55.4%
inhibition of growth at 10 µM [24]: 12.9%
inhibition of growth at 10 µM [25]: 12.6%
inhibition of growth at 10 µM [26]: 3.37%
inhibition of growth at 10 µM [27]: 22%
inhibition of growth at 10 µM [28]: -1.98%
inhibition of growth at 10 µM [29]: 23.5%
inhibition of growth at 10 µM [30]: 15.3%
inhibition of growth at 10 µM [31]: 9.58%
inhibition of growth at 10 µM [32]: -24.1%
inhibition of growth at 10 µM [33]: -2.46%
inhibition of growth at 10 µM [34]: 5.43%
inhibition of growth at 10 µM [35]: 8.85%
inhibition of growth at 10 µM [36]: -17.9%
inhibition of growth at 10 µM [37]: 30.2%
inhibition of growth at 10 µM [38]: 10.1%
inhibition of growth at 10 µM [39]: 3.91%
inhibition of growth at 10 µM [40]: 53.2%
inhibition of growth at 10 µM [41]: -0.13%
inhibition of growth at 10 µM [42]: 43.5%
inhibition of growth at 10 µM [43]: 21.4%
inhibition of growth at 10 µM [44]: 29.5%
